Entries after “also recorded” stand apart in the source; their conditions may differ.
Key:
α1A-AR [1] = assay: cAMP assay and PAM assay in Rat-1 fibroblasts expressing α1A-AR; assay type: cell-based; settings: for PAM activity (NE-mediated cAMP potentiation, PAM assay): NE 10^−4 M held constant, compound dose-response; for intrinsic (basal) agonist activity, cAMP: compound alone, dose-response
α1A-AR [2] = target: T1, α1A-AR (Homo sapiens, UniProt P35348); assay: Total inositol phosphate assay in Rat-1 fibroblasts expressing α1A-AR; assay type: cell-based; settings: for intrinsic (basal) agonist activity, inositol phosphate: compound alone, dose-response
T1 sequence (P35348 1-466): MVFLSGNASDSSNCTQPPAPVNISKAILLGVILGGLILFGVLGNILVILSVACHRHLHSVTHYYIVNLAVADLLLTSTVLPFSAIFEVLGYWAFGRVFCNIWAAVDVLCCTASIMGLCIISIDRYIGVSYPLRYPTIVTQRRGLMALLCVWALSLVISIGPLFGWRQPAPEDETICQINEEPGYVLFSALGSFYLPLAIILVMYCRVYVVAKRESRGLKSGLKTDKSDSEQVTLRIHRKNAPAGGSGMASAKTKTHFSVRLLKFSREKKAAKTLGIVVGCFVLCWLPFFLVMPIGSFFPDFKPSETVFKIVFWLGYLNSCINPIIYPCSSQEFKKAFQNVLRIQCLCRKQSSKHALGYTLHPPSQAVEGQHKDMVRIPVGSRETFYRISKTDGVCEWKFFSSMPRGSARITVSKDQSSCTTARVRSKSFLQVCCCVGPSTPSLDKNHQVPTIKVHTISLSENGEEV

α1A-AR [3] = target: T1, α1A-AR; assay type: binding; settings: for extent of inhibition of 125I-HEAT binding at α1A-AR: 0.5 mM GTP
α1A-AR [4] = target: T1, α1A-AR; settings: ref Hwa et al., 1995; cited from earlier work
α1D-AR = target: T2, α1D-AR (Homo sapiens, UniProt P25100); assay type: binding; settings: 0.5 mM GTP
T2 sequence (P25100 1-572): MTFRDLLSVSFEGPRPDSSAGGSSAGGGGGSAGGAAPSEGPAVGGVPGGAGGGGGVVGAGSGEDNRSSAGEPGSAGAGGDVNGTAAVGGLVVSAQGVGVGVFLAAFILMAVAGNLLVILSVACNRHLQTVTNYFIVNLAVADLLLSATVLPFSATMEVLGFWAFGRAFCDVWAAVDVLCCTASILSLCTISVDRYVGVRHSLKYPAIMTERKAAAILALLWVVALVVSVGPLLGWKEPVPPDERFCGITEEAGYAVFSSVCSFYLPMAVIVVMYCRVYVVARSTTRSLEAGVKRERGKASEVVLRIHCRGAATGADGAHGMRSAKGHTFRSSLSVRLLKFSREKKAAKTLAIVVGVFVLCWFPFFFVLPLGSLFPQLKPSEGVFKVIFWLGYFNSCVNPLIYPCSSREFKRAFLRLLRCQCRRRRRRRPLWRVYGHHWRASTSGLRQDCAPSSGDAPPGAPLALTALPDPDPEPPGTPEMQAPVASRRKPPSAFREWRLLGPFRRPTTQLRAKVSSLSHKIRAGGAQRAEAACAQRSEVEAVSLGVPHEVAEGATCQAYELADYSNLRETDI

α1B-AR = assay type: binding; settings: 0.5 mM GTP
α2A-AR = target: T3, α2A-AR (Homo sapiens, UniProt P08913); assay type: binding; settings: Cos-1 membranes
T3 sequence (P08913 1-465): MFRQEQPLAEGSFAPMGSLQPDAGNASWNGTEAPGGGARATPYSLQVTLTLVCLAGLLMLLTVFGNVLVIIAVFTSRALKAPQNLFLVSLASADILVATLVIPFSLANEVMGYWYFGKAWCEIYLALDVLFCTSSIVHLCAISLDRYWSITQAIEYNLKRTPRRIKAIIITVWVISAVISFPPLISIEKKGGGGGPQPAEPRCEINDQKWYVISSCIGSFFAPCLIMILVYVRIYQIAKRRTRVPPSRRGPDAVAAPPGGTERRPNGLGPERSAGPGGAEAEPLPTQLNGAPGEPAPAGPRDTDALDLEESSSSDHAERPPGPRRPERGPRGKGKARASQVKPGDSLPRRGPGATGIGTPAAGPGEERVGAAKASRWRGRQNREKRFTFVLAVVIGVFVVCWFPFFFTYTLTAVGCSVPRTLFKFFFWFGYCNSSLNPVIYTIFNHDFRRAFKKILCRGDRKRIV

| intrinsic (basal) agonist activity, inositol phosphate (α1A-AR [2]) | Compound | PAM activity (NE-mediated cAMP potentiation, PAM assay) (α1A-AR [1]) | intrinsic (basal) agonist activity, cAMP (α1A-AR [1]) | other results |
| --- | --- | --- | --- | --- |
| do not show any basal activity | CN(c1cccc(OCC2=NCCN2)c1CC(F)(F)F)S(C)(=O)=O.Cl [Cmpd-13, N-(3-((4,5-Dihydro-1H-imidazol-2-yl)methoxy)-2-(2,2,2-trifluoroethyl)phenyl)-N-methylmethanesulfonamide hydrochloride] | lost PAM activity; also recorded: display competitive inhibition; also recorded: abolishes PAM activity | do not show any basal activity | – |
| do not show any basal activity | CN(c1cccc(OCC2=NCCN2)c1CC(C)(C)C)S(C)(=O)=O.Cl [Cmpd-14, N-(3-((4,5-Dihydro-1H-imidazol-2-yl)methoxy)-2-neopentylphenyl)-N-methylmethanesulfonamide hydrochloride] | retained PAM activity; also recorded: display PAM effect | do not show any basal activity | – |
| partial agonists | Cc1c(OCC2=NCCN2)ccc(Cl)c1NS(C)(=O)=O [RO115-1240, Dabuzalgron, reference compound] | neither RO115-1240 nor cirazoline displayed any PAM characteristics | partial agonists | effect on Epi-mediated inositol phosphate signal at α1A-AR (α1A-AR [2]): effects consistent with a partial or full agonist; effect on NE-mediated inositol phosphate signal at α1A-AR (α1A-AR [2]): effects consistent with a partial or full agonist |

Continued, molecule first:

| Compound | intrinsic (basal) agonist activity, inositol phosphate (α1A-AR [2]) | PAM activity (NE-mediated cAMP potentiation, PAM assay) (α1A-AR [1]) | intrinsic (basal) agonist activity, cAMP (α1A-AR [1]) | other results |
| --- | --- | --- | --- | --- |
| CC(C)Cc1c(OCC2=NCCN2)ccc(Cl)c1N(C)S(C)(=O)=O.Cl [Cmpd-7, N-(6-Chloro-3-((4,5-dihydro-1H-imidazol-2-yl)methoxy)-2-isobutylphenyl)-N-methylmethanesulfonamide hydrochloride] | – | abolished PAM activity | – | – |
| CC(C)CCc1c(OCC2=NCCN2)cccc1N(C)S(C)(=O)=O.Cl [Cmpd-10, N-(3-((4,5-Dihydro-1H-imidazol-2-yl)methoxy)-2-isopentylphenyl)-N-methylmethanesulfonamide hydrochloride] | do not show any basal activity | retained PAM activity; also recorded: display PAM effect | do not show any basal activity | – |
| CC(C)Cc1c(OCC2=NCCN2)cccc1N(C)S(=O)(=O)C(C)C.Cl [Cmpd-12, N-(3-((4,5-Dihydro-1H-imidazol-2-yl)methoxy)-2-isobutylphenyl)-N-methylpropane-2-sulfonamide hydrochloride] | do not show any basal activity | lost PAM activity; also recorded: display competitive inhibition; also recorded: abolished PAM activity | do not show any basal activity | – |
| NC[C@H](O)c1ccc(O)c(O)c1 [NE, norepinephrine] | – | – | – | fraction of receptor in the high affinity state, NE alone (α1A-AR [3]; absence of GTP): 15% |
| c1ccc(C2CC2)c(OCC2=NCCN2)c1 [cirazoline, reference compound] | partial agonists | competitive inhibition; also recorded: neither RO115-1240 nor cirazoline displayed any PAM characteristics | partial agonists; also recorded: greater intrinsic activity than RO115-1224 | selectivity for α1A-AR against the α1B- and α1D-AR subtypes (α1A-AR [4]): 10-50 fold; extent of inhibition of 125I-HEAT binding at α1D-AR (α1D-AR): completely inhibited; effect on Epi-mediated cAMP response at α1A-AR (α1A-AR [1]; Epi dose-response, propranolol and rauwolscine present): rightward curve-shifting effects; also recorded: rightward shifting competitive effects; effect on NE-mediated cAMP response at α1A-AR (α1A-AR [1]; NE dose-response, propranolol and rauwolscine present): rightward curve-shifting effects; also recorded: rightward shifting competitive effects; extent of inhibition of 125I-HEAT binding at α1A-AR (α1A-AR [3]): fully inhibit; also recorded: completely inhibited; effect on NE binding at α1A-AR (α1A-AR [3]; compound 10^−5 M, absence of GTP, 125I-HEAT): fully-inhibited the binding of NE; also recorded: completely competes off NE binding; binding at α1B-AR (125I-HEAT competition) (α1B-AR): completely inhibited |
| Cc1ccc(N(CC2=NCCN2)c2cccc(O)c2)cc1 [phentolamine] | – | – | – | extent of inhibition of 125I-HEAT binding at α1A-AR (α1A-AR [3]): fully inhibit; also recorded: completely inhibited |
| COC(=O)[C@H]1[C@H]2C[C@H]3c4[nH]c5ccccc5c4CCN3C[C@H]2CC[C@@H]1O [rauwolscine, reference compound] | – | – | – | extent of inhibition of 3H-RX821002 binding at α2A-AR (α2A-AR): fully inhibited |

Source: paper PMC9762201 (Current Research in Pharmacology and Drug Discovery, 2022)
